Patent US6710066B2, “Photochemotherapeutic method using 5-aminolevulinic acid and other precursors of endogenous porphyrins” (priority 1989, dated 2004)

What was measured:
[1] = following intravenous injection; occasionally more than two months; cited from earlier work
[2] = very large doses; cited from earlier work
P. yoelii = assay: ALA-induced fluorescence within erythrocytes parasitized by P. yoelii, mice given ALA; conditions: ALA injected into infected mice

| Structure (SMILES) | persistence of photosensitizing amount of porphyrin in the skin [1] | effect on motor nerve conduction velocity [2] | PpIX accumulation in non-infected erythrocytes and leukocytes (P. yoelii) | PpIX accumulation in plasmodia within erythrocytes (P. yoelii) |
| --- | --- | --- | --- | --- |
| CC1=C(CCC(=O)O)c2cc3[nH]c(cc4nc(cc5[nH]c(cc1n2)c(C)c5C(C)O)C(C)=C4C(C)O)c(C)c3CCC(=O)O (stereo not shown) [HpIX, Hematoporphyrin IX, reference compound] | at least two weeks | transient decrease in motor nerve conduction velocity | – | – |
| NCC(=O)CCC(=O)O [5-aminolevulinic acid (ALA)] | – | – | no such accumulation of protoporphyrin | accumulation of fluorescing and photosensitizing concentrations of protoporphyrin within metabolically active parasites |
